Key:
enteric bacterial cells = assay: MDAB staining of bacterial colonies with indicators I4a and I5a on Tryptic Soy Agar, aerobic and anaerobic; type: cell-based; conditions: Salmonella manhattan (b-gal −); aR MDAB, equivalents 1:1; TSAYE with 40 mg/100 ml of indicator
Experimental: Tryptic Soy Agar (TSA) with yeast extract (0.6%) was used as the base plating medium. The media were autoclaved at 121° C. for 15 minutes and placed in a 50° C. water bath to cool. Indicators were added to the basal medium at a final concentration of 40 mg/100 ml (from 80 mg/ml stock solutions in DMF). Over night cultures of enteric bacterial cells in Brain Heart Infusion Broth were streaked onto the plates and incubated at 35° C. for 24 hours under aerobic and anaerobic conditions. After incubation, the colonial morphologies on the plates were recorded (Table III).
Weak staining was observed occasionally due to residual oxygen (micro-anaerobic conditions). Under aerobic conditions indigo (IN-stains) generally dominated the effects of MDAB staining. For example indicator system I4a/MDAB stained colonies violet under anaerobic but indigo blue under aerobic conditions.

Escherichia coli = assay: IN and IO staining of bacterial colonies under anaerobic conditions; type: cell-based; conditions: for D: Diffusion around colonies / G: Growth of colonies / I: Intensity of color / L: Localization on colonies / S: Size of colonies: Nutrient Agar plates, anaerobically incubated with E. coli
Experimental: Nutrient Agar plates containing 150 mg/l of various substrates and 100 mg/l IPTG were inoculated with Escherichia coli. Plates were put in an anaerobic jar (Anaerojar, Oxoid), an AnaeroGen sachet (Oxoid) was added, the jar was closed and incubated for 24 hours at 37° C.
IN staining cannot be used under anaerobic conditions.

[1] = biological target: E. coli beta-galactosidase (Escherichia coli, UniProt P00722)
Experimental: Enzymatic reactions were performed in 100 mM Na2PO4 buffer, pH 7.3 containing 1 mM MgCl2 and 670 mg/l enzyme substrate. E. coli beta-galactosidase or K. lactis lactase were added to a final concentration of 1000 U/I or 1500 U/I, respectively. 30 ml reaction volumes were incubated for 5-18 hours at 37° C. with gentle shaking. The reaction product was collected by centrifugation (4400 g, 15 min), pellets were washed with 10 ml H2O and centrifuged again (4400 g, 15 min).

Escherichia coli 270 = assay: IO staining of colonies of beta-D-galactosidase positive/negative bacteria (Table IVb); type: cell-based; conditions: Escherichia coli strain 270, b-gal +; 24 h on Nutrient Agar, 150 mg/l indicator, 100 mg/l IPTG; as to C: Color of colonies: key: −: absent; +/−: weak; +: strong; ++: very strong; as to G: Growth of colonies: key: −: absent; +/−: weak; +: strong; ++: very strong
[2] = tested on: Pseudomonas aeruginosa 168; assay: as above; type: cell-based; conditions: Pseudomonas aeruginosa strain 168, b-gal −, 24 h on Nutrient Agar, 150 mg/l indicator, 100 mg/l IPTG; for F: Fluorescence of colonies: footnote 1: blue autofluorescence; as to C: Color of colonies: key: −: absent; +/−: weak; +: strong; ++: very strong; as to G: Growth of colonies: key: −: absent; +/−: weak; +: strong; ++: very strong
[3] = tested on: beta-D-galactosidase positive/negative bacteria; assay: IO staining of colonies of beta-D-galactosidase positive/negative bacteria (Table IVb), hue named in column head; type: cell-based; conditions: hue of fluorescence of stained colonies; 24 h on Nutrient Agar, 150 mg/l indicator, 100 mg/l IPTG
Klebsiella pneumoniae = assay: IO staining of bacterial colonies on Blood Agar plates; type: cell-based; conditions: 24 h on Blood Agar, 150 mg/l I21a and 100 mg/l IPTG; as to Growth: key: −: absent; +/−: weak; +: strong; ++: very strong
Experimental: Standard commercially available Blood Agar plates were impregnated with 150 mg/l 1-(2-benzoylphenyl)-6-chloro-1H-indol-3-yl-beta-D-galactopyranoside (I21a) and 100 mg/l IPTG. The plate was inoculated with Klebsiella pneumoniae.
IO stain contrasts very well with the agar plate. Further, despite the quenching effect of blood IO fluorescence is fully maintained and readily detectable.

[4] = tested on: beta-galactosidase positive Eschericha coli (NM1); assay: IO staining of bacterial colonies on Nutrient Agar (color, fluorescence, localization, growth); as to C: Color of colonies (strength): key: −: absent; +/−: weak; +: strong; ++: very strong; as to F: Fluorescence of colonies (strength): key: −: absent; +/−: weak; +: strong; ++: very strong; as to G: Growth of colonies: key: −: absent; +/−: weak; +: strong; ++: very strong; type: cell-based, E. coli; conditions: 150 mg/l substrate and 100 mg/l IPTG
Summary of the method: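 Indicators were added at 150 mg/l final, optionally with 100 mg/l IPTG, to nutrient agar at pH 7.4. Plates were inoculated with β-gal-positive E. coli NM1 or β-gal-negative S. enteritidis and incubated at 37 °C. Colony color was inspected at 16–48 h under white light, and fluorescence under 366 nm UV and by plate-reader scans of 48 h cells.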

[5] = tested on: beta-galactosidase negative Salmonella enteritidis (RKI 05/07992); type: cell-based; conditions: S. enteritidis (b-gal negative), 24 h, 150 mg/l substrate and 100 mg/l IPTG; also: key: −: absent; +/−: weak; +: strong; ++: very strong
Experimental: Nutrient Agar (5 g/l peptone, 5 g/l NaCl, 2 g/l yeast extract, 1 g/l beef extract, 13 g/l agar, pH 7.4) was autoclaved and allowed to cool to 50° C. Then indicators were added to final concentrations of 150 mg/l (from a 20 mg/ml stock solution in DMF).
Optionally IPTG was added to 100 mg/l (from a 100 mg/ml stock solution in H2O) and plates were poured. Agar plates were inoculated with cultures of beta-galactosidase positive Eschericha coli (NM1) or beta-galactosidase negative Salmonella enteritidis (RKI 05/07992) (pre-grown on nutrient broth for 8-18 hours) and incubated at 37° C. Plates were inspected at 16, 20, 24 and 48 hours and pictures were recorded at 18, 24, and 48 hours with a Digistore 2 Image documentation system (CAMAG) under white light.
A considerable number of indicators molecules (Table IVa, IVb) and a selection of labile groups (Table IVc) were tested with various microbial species producing different biomarker enzymes (external stimuli, eS). The color of stains ranges from yellow to red.
Plating media from Example 10 were examined under 366 nm UV irradiation at 16, 20, 24 and 48 hours for fluorescence by means of Digistore 2 Image documentation system (CAMAG). Loops of bacterial cells, grown for 48 hours on Nutrient Agar plates containing 150 mg/l beta-D-galactosidase indicator and 100 mg/l IPTG, were directly streaked into wells of black clear bottom microtiter plates. Fluorescence scans were recorded on a Spectramax M5 (Molecular Devices).

Sequence of E. coli beta-galactosidase (P00722 2-1024): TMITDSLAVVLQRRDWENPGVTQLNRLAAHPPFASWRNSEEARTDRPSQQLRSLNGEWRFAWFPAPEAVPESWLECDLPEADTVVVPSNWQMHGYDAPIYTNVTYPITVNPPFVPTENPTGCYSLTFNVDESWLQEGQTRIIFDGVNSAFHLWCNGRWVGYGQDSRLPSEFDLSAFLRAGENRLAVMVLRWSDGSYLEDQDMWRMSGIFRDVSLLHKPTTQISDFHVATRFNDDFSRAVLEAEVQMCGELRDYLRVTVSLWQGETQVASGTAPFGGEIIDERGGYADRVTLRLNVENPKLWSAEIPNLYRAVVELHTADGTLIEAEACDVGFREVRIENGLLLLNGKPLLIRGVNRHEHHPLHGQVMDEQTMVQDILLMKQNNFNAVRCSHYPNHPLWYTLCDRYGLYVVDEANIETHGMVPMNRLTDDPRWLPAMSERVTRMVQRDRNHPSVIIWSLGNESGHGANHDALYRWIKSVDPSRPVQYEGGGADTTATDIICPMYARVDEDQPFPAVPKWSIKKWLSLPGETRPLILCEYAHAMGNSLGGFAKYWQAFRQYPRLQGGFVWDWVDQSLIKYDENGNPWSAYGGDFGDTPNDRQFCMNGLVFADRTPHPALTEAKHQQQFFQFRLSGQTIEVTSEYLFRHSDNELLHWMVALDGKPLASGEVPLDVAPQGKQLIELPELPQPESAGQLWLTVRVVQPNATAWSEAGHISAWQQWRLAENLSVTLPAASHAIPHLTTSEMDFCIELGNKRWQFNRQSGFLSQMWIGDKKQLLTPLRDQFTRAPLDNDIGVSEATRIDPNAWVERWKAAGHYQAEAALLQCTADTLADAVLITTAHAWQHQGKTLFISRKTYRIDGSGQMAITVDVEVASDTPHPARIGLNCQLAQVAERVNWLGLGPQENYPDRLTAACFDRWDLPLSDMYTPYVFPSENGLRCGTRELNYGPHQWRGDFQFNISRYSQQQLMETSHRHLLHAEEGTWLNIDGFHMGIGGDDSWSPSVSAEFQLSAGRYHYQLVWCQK

Molecule | D: Diffusion around colonies (Escherichia coli) | G: Growth of colonies (Escherichia coli) | I: Intensity of color (Escherichia coli) | L: Localization on colonies (Escherichia coli) | S: Size of colonies (Escherichia coli) | C: Color of colonies (Escherichia coli 270) | F: Fluorescence of colonies (Escherichia coli 270) | G: Growth of colonies (Escherichia coli 270) | C: Color of colonies [2] | G: Growth of colonies [2] | F: Fluorescence of colonies [2] | F: Fluorescence of colonies (hue) [3] | also measured
5-Bromo-4-chloro-1H-indol-3-yl-beta-D-galactopyranoside [Indicator I4a, reference compound] | ++ | +/− | +/− | − | pinpoint | ++ | − | + | − | + | +^1 | − | colonial morphology, aerobic conditions (enteric bacterial cells): Cream colored colonies; colonial morphology, microaerobic (anaerobic) conditions (enteric bacterial cells): Cream colored colonies; IN staining under anaerobic conditions (Escherichia coli; E. coli, anaerobic): failure; Signal upon incubation with beta-D-galactosidase in the absence of oxygen ([1]; blend with MDAB, absence of oxygen): pink dye
O=C(c1ccccc1)c1ccccc1-n1cc(O[C@@H]2O[C@H](CO)[C@H](O)[C@H](O)[C@H]2O)c2ccc(Cl)cc21 [Indicator I21a, 1-(2-Benzoylphenyl)-6-chloro-1H-indol-3-yl-beta-D-galactopyranoside] | +/− | + | + | + | 0.7 mm | ++ | + | + | − | + | +^1 | y-g | Color of colonies UV (366 nm) (Klebsiella pneumoniae): Yellow-orange on a dark background; Color of colonies white/visible (Klebsiella pneumoniae): Yellow; Growth (Klebsiella pneumoniae): +; Product of incubation with beta-D-galactosidase ([1]; 24 h): bright yellow precipitate
COc1ccc(C(=O)c2ccccc2-n2cc(O[C@@H]3O[C@H](CO)[C@H](O)[C@H](O)[C@H]3O)c3c(Cl)c(Br)ccc32)c(OC)c1 [Indicator I28a, 5-Bromo-4-chloro-1-[2-(2,4-dimethoxybenzoyl)phenyl]-1H-indol-3-yl-beta-D-galactopyranoside] |  |  |  |  |  | ++ | +/− | + | − | + | +^1 |  | F: Fluorescence of colonies (colour) ([4]; 24 h, 366 nm UV): (red); C: Color of colonies (colour of stain) ([4]; 24 h on Nutrient Agar): orange; G: Growth of colonies ([4]; E. coli, 24 h): +; L: Localization of stain on colonies ([4]; E. coli, 24 h): +; F: Fluorescence of colonies (strength) ([4]; E. coli, 24 h, 366 nm UV): +/−; C: Color of colonies (strength) ([4]; E. coli, 24 h on Nutrient Agar): +; C: Color of colonies (strength) [5]: −; F: Fluorescence of colonies (strength) ([5]; 366 nm UV): −

Reference: patent publication US8940909B2, “Indicator platform” (Biosynth AG, priority 2009, dated 2015)
